Reference: patent publication US5250673A, “2'-deoxy-5-substituted uridine derivatives” (priority 1983, dated 1993)
Like-named read-outs stand apart in the source and are kept apart here.

What was measured:
Format in all cases: in vivo, mouse
Sarcoma 180 [1] = test: calculation of therapeutic index (B)/(A), Sarcoma 180 mice; set-up: key: C = toxicity value (B) / antitumor activity value (A); conditions: oral, once a day, 7 days
Method: (c) Calculation of therapeutic index
By the use of the antitumor activity value (hereinafter referred to as A) and the toxicity value (hereinafter referred to as B) of each compound, which were obtained in the above items (a) and (b), respectively, therapeutic index (hereinafter referred to as C) was calculated in accordance with the following equation.
Therapeutic index (C)=^(B)(A)

[2] = toxicity value: 50% inhibition of weight increase of test animal (Sarcoma 180 tumor-transplanted mice); conditions: mouse, sarcoma 180 bearing mice, oral, once a day, 7 days, male ICR/JCL mice, read-out: Toxicity value (B) Administration amount of test compound at which weight increase of test animal is inhibited by 50% compared with that of control group
Method: (b) Method for determining toxicity value
Hitherto, toxicity values of anti-malignant tumor agents have been calculated on the bases of LD50 of test animals, in most cases. […] Therefore, in the present test, accumulated toxicity, which well represents the toxicity of anti-malignant tumor agents, was focused on and, as an indication for sensitive detection of the accumulated toxicity, inhibition of weight increase of test animal was measured. That is, when antitumor activity value was determined in the above item (a), the weight of each mouse of each test groups for each test compounds was measured daily from the day of tumor transplanting, immediately before administration.
On the day of tumor weight measurement, the average net weight increase of each mouse of each test groups for each test compounds from the day of tumor transplanting was measured. These increases were compared with the average net weight increase of control group and the ratio of net weight increase of each test groups of each test compounds to that of control group was calculated. From these calculations, there was obtained an addition amount of each test compound at which weight increase is inhibited by 50% compared with that of control group, and that amount was taken as a toxicity value of each compound.

Sarcoma 180 [3] = test: antitumor activity: 50% inhibition of tumor enhancement, Sarcoma 180 transplanted in mice; conditions: oral, once a day, 7 days, male ICR/JCL mice, tumor weight day 10
Method: (a) Method for determining of antitumor activity value
5×10^6 Cells of mouse-transplantable tumor Sarcoma 180 were transplanted to each male ICR/JCL-strain mouse (having a weight of 27 to 30 g) subcutaneously at the back. Each test compound dissolved or suspended in 0.1% Tween 80^(*) - 0.5% CMC solution was orally administered to various test groups each consisting of 7 mice once a day for 7 consecutive days from the next day of tumor transplanting, in an amount of 1.0 ml of solution or suspension per 100 g weight per day. As to a control group, the same Tween 80-CMC solution containing no test compound was orally administered once a day for 7 consecutive days in an amount of 1.0 ml per 100 g weight per day. (*) (A trademark for a series of surface which is a polyoxyethylene derivative of fatty acid partial ester of sorbitol anhydride, manufactured by I.C.I. U.S., Inc.)
On the tenth day from the tumor transplanting, an average tumor weight for each administration level of each test compound was determined. This weight was compared with an average tumor weight in control group, and the ratio of tumor enhancement inhibition at each administration level of each test compound compared with control group was calculated. From these calculations, the administration level of each test compound at which the ratio of tumor enhancement inhibition become 50% was obtained and the level (amount) was taken as the antitumor activity value of each compound.

| Compound | Therapeutic index (C) = (B)/(A) (Sarcoma 180 [1]; Table 1-a) | TD50 at 240 h ([2]; Table 1-a) [mg/kg] | Antitumor activity value (A) Administration amount of test compound at which tumor enhancement is inhibited by 50% compared with that of control group (Sarcoma 180 [3]; Table 1-a) [mg/kg/day] | Therapeutic index (C) = (B)/(A) (Sarcoma 180 [1]; Table 1-b) | TD50 at 240 h ([2]; Table 1-b) [mg/kg] | Antitumor activity value (A) Administration amount of test compound at which tumor enhancement is inhibited by 50% compared with that of control group (Sarcoma 180 [3]; Table 1-b) [mg/kg/day] | further results |
| --- | --- | --- | --- | --- | --- | --- | --- |
| COc1ccc(CO[C@H]2C[C@H](n3cc(C(F)(F)F)c(=O)[nH]c3=O)O[C@@H]2CO)cc1 [Compound 18, 2'-deoxy-3'-O-(4-methoxybenzyl)-5-trifluoromethyluridine] | 1.15 | 60 | 52 |  |  |  |  |
| O=c1[nH]c(=O)n([C@H]2C[C@H](OCc3ccccc3)[C@@H](CO)O2)cc1F [Compound 40, 2'-deoxy-3'-O-benzyl-5-fluorouridine] |  |  |  |  |  |  | TD50 at 240 h ([2]; Table 1-c): 35 mg/kg; Antitumor activity value (A) Administration amount of test compound at which tumor enhancement is inhibited by 50% compared with that of control group (Sarcoma 180 [3]; Table 1-c): 17 mg/kg/day |
| Cc1ccccc1CO[C@H]1C[C@H](n2cc(C(F)(F)F)c(=O)[nH]c2=O)O[C@@H]1CO [Compound 14] | 1.43 | 57 | 40 |  |  |  |  |
| O=C(c1ccccc1)n1c(=O)c(C(F)(F)F)cn([C@H]2C[C@H](O)[C@@H](COCc3ccccc3)O2)c1=O [Compound 27, 3-benzoyl-5'-O-benzyl-2'-deoxy-5-trifluoromethyluridine] |  |  |  | 1.40 | 35 | 25 |  |
| CCOC[C@H]1O[C@@H](n2cc(C(F)(F)F)c(=O)n(C(=O)c3ccccc3)c2=O)C[C@@H]1O [Compound 24, 3-benzoyl-2'-deoxy-5'-O-ethyl-5-trifluoromethyluridine] |  |  |  | 1.38 | 36 | 26 |  |
| O=c1[nH]c(=O)n([C@H]2C[C@H](O)[C@@H](COCc3ccccc3)O2)cc1C(F)(F)F [Compound 32, 2'-deoxy-5'-O-benzyl-5-trifluoromethyluridine] |  |  |  | 1.79 | 34 | 19 |  |
| COC[C@H]1O[C@@H](n2cc(C(F)(F)F)c(=O)[nH]c2=O)C[C@@H]1O [Compound 29] |  |  |  | 1.50 | 72 | 48 |  |
| O=C(c1ccccc1)n1c(=O)c(C(F)(F)F)cn([C@H]2C[C@H](OCc3ccccc3)[C@@H](CO)O2)c1=O [Compound 28, 3-benzoyl-3'-O-benzyl-2'-deoxy-5-trifluoromethyluridine] |  |  |  | 1.40 | 35 | 25 |  |
| O=c1[nH]c(=O)n([C@H]2C[C@H](OCc3ccc(Cl)cc3)[C@@H](CO)O2)cc1C(F)(F)F [Compound 12] | 1.42 | 17 | 12 |  |  |  |  |
| CCOC[C@H]1O[C@@H](n2cc(C(F)(F)F)c(=O)[nH]c2=O)C[C@@H]1O [Compound 30, 2'-deoxy-5'-O-ethyl-5-trifluoromethyluridine] |  |  |  | 1.68 | 32 | 19 |  |
| Cc1cccc(CO[C@H]2C[C@H](n3cc(C(F)(F)F)c(=O)[nH]c3=O)O[C@@H]2CO)c1 [Compound 16, 2'-deoxy-3'-O-(3-methylbenzyl)-5trifluoromethyluridine] | 1.45 | 45 | 31 |  |  |  |  |
| COc1ccc(COC[C@H]2O[C@@H](n3cc(C(F)(F)F)c(=O)[nH]c3=O)C[C@@H]2O)cc1 [Compound 17] | 1.13 | 51 | 45 |  |  |  |  |
| O=c1[nH]c(=O)n([C@H]2C[C@H](OCc3ccccc3)[C@@H](CO)O2)cc1C(F)(F)F [Compound 33, 3'-O-benzyl-2'-deoxy-5-trifluoromethyluridine] |  |  |  |  | 32 | 17 |  |
| CCCCOC[C@H]1O[C@@H](n2cc(C(F)(F)F)c(=O)n(C(=O)c3ccccc3)c2=O)C[C@@H]1O [Compound 26] |  |  |  | 1.48 | 74 | 50 |  |
| CCO[C@H]1C[C@H](n2cc(C(F)(F)F)c(=O)[nH]c2=O)O[C@@H]1CO [Compound 31, 2'-deoxy-3'-O-ethyl-5-trifluoromethyluridine] |  |  |  | 1.50 | 30 | 20 |  |
| CCO[C@H]1C[C@H](n2cc(C(F)(F)F)c(=O)n(C(=O)c3ccccc3)c2=O)O[C@@H]1CO [Compound 25, 3-benzoyl-2'-deoxy-3'-O-ethyl-5-trifluoromethyluridine] |  |  |  | 0.82 | 31 | 38 |  |
| Cc1ccccc1COC[C@H]1O[C@@H](n2cc(C(F)(F)F)c(=O)[nH]c2=O)C[C@@H]1O [Compound 13, 2'-deoxy-5'-O-(2-methylbenzyl)-5-trifluoromethyluridine] | 1.35 | 65 | 48 |  |  |  |  |
| CCOC[C@H]1O[C@@H](n2cc(F)c(=O)n(C(=O)c3ccccc3)c2=O)C[C@@H]1O [Compound 35, 3-benzoyl-2'-deoxy-5'-O-ethyl-5-fluorouridine] |  |  |  |  |  |  | Therapeutic index (C) = (B)/(A) (Sarcoma 180 [1]; Table 1-c): 1.37; TD50 at 240 h ([2]; Table 1-c): 70 mg/kg; Antitumor activity value (A) Administration amount of test compound at which tumor enhancement is inhibited by 50% compared with that of control group (Sarcoma 180 [3]; Table 1-c): 51 mg/kg/day |
| CCOC[C@H]1O[C@@H](n2cc(F)c(=O)[nH]c2=O)C[C@@H]1O [Compound 39] |  |  |  |  |  |  | Therapeutic index (C) = (B)/(A) (Sarcoma 180 [1]; Table 1-c): 2.39; TD50 at 240 h ([2]; Table 1-c): 67 mg/kg; Antitumor activity value (A) Administration amount of test compound at which tumor enhancement is inhibited by 50% compared with that of control group (Sarcoma 180 [3]; Table 1-c): 28 mg/kg/day |
| O=c1[nH]c(=O)n([C@H]2C[C@H](O)[C@@H](COCc3ccc(Cl)cc3)O2)cc1C(F)(F)F [Compound 11] | 1.22 | 22 | 18 |  |  |  |  |
| O=c1[nH]c(=O)n([C@H]2C[C@H](O)[C@@H](COCc3ccccc3)O2)cc1F [Compound 41] |  |  |  |  |  |  | Therapeutic index (C) = (B)/(A) (Sarcoma 180 [1]; Table 1-c): 2.31; TD50 at 240 h ([2]; Table 1-c): 30 mg/kg; Antitumor activity value (A) Administration amount of test compound at which tumor enhancement is inhibited by 50% compared with that of control group (Sarcoma 180 [3]; Table 1-c): 13 mg/kg/day |
| Cc1cccc(COC[C@H]2O[C@@H](n3cc(C(F)(F)F)c(=O)[nH]c3=O)C[C@@H]2O)c1 [Compound 15, 2'-deoxy-5'-O-(3-methylbenzyl)-5-trifluoromethyluridine] | 1.71 | 41 | 24 |  |  |  |  |
| O=c1c(C(F)(F)F)cn([C@H]2C[C@H](O)[C@@H](COCc3ccccc3)O2)c(=O)n1C1CCCO1 (stereo partly shown) [Compound 21, 3-(2-tetrahydrofuranyl)-2'-deoxy-5'-O-benzyl-5-trifluoromethyluridine] | 1.36 | 30 | 22 |  |  |  |  |
